This assay deals with T1, PTB domain/c-erbB2 binding (GST-PTB domain of SHC; c-erbB2 from SKBR3 lysate) (Homo sapiens, UniProt P29353).
T1 construct: GST-PTB domain fusion proteins were expressed from recombinant baculovirus in sf9 cells; made in house; host or cells: Sf9 cells (recombinant baculovirus) for GST-PTB; c-erbB2 endogenous in SKBR3 cell lysate
T1 sequence (P29353 156-341): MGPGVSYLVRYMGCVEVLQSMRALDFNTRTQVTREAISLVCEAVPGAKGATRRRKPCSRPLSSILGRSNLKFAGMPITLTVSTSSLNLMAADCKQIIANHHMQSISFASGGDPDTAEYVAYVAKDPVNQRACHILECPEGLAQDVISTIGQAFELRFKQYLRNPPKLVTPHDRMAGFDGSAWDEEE
In words: biochemical.

Setting [1] is: Affinity (IC50), Table 3, ability to block PTB domain/c-erbB2 binding.
[2] abbreviates: approximate IC50, inhibition of PTB domain/c-erbB2 binding.

Where two headings read alike, the source gives them in different places. Where a SMILES comes first, the peptide text is derived from it. Where no end group is shown, it is not given here.

Broadly, the IC50 is the midpoint of a concentration-inhibition curve.

For `NC(Cc1ccccc1)C(=O)NC(Cc1ccccc1)C(=O)O` (centres unmarked), for the setting “Table 3, ability to block PTB domain/c-erbB2 binding, read-out: Affinity (IC50)”, the IC50 is over 30000 nM.

On to PAFSPAFDNLEEWDQNSSEQG, for which the IC50 under setting [1] was over 30000 nM.

Turning to `CC(C)C[C@H](NC(=O)[C@@H]1CCCN1C(=O)[C@H](C)NC(=O)[C@@H](NC(=O)[C@H](Cc1ccc(OP(=O)(O)O)cc1)NC(=O)CNC(=O)[C@H](CC(=O)O)NC(=O)[C@@H](NC(=O)[C@H](CCC(=O)O)NC(=O)[C@@H]1CCCN1C(=O)[C@@H]1CCCN1C(=O)[C@H](CC(C)C)NC(=O)[C@@H]1CCCN1C(=O)[C@H](CC(C)C)NC(=O)[C@@H](N)[C@@H](C)O)[C@@H](C)O)C(C)C)C(=O)N[C@@H](C)C(=O)N[C@@H](CS)C(=O)N[C@@H](CO)C(=O)N1CCC[C@H]1C(=O)N[C@@H](CCC(N)=O)C(=O)O` [TLPLPPETDG (pY) VAPLACSPQ, TLPLPPETDG(pY)VAPLACSPQ] (HELM PEPTIDE1{T.L.P.L.P.P.E.T.D.G.[O=C([C@H](Cc1ccc(OP(=O)(O)O)cc1)N[*:1])[*:2]].V.A.P.L.A.C.S.P.Q}$$$$V2.0), for the setting “Apparent Inhibition (IC50)”, the IC50 was over 100000 nM.

As to `CC(C)C[C@H](NC(=O)[C@@H]1CCCN1C(=O)[C@H](C)N)C(=O)N[C@@H](C)C(=O)N[C@@H](CS)C(=O)N[C@@H](CO)C(=O)N1CCC[C@H]1C(=O)N[C@@H](CCC(N)=O)C(=O)N1CCC[C@H]1C(=O)N[C@@H](CCC(=O)O)C(=O)N[C@@H](Cc1ccc(OP(=O)(O)O)cc1)C(=O)N[C@H](C(=O)N[C@@H](CC(N)=O)C(=O)N[C@@H](CCC(N)=O)C(=O)N1CCC[C@H]1C(=O)N[C@@H](CCC(=O)O)C(=O)N[C@H](C(=O)N[C@@H](CCCNC(=N)N)C(=O)N1CCC[C@H]1C(=O)N[C@@H](CCC(N)=O)C(=O)N[C@@H](CO)C(=O)O)C(C)C)C(C)C` [APLACSPQPE (pY) VNQPEVRPQS, APLACSPQPE(pY)VNQPEVRPQS] (HELM PEPTIDE1{A.P.L.A.C.S.P.Q.P.E.[O=C([C@H](Cc1ccc(OP(=O)(O)O)cc1)N[*:1])[*:2]].V.N.Q.P.E.V.R.P.Q.S}$$$$V2.0), the IC50 (Apparent Inhibition (IC50)) was over 100000 nM.

As to `CC(C)C[C@H](NC(=O)[C@H](CCC(N)=O)NC(=O)[C@H](CC(N)=O)NC(=O)[C@H](CCC(N)=O)NC(=O)[C@H](CO)NC(=O)[C@H](Cc1ccc(OP(=O)(O)O)cc1)NC(=O)[C@H](Cc1c[nH]c2ccccc12)NC(=O)[C@H](CO)NC(=O)[C@@H](N)CC(=O)O)C(=O)N[C@@H](Cc1ccccc1)C(=O)N[C@@H](CC(=O)O)C(=O)N[C@@H](CO)C(=O)N[C@@H](Cc1ccccc1)C(=O)N[C@@H](C)C(=O)N1CCC[C@H]1C(=O)N[C@@H](CCC(=O)O)C(=O)NCC(=O)N[C@@H](Cc1ccc(OP(=O)(O)O)cc1)C(=O)N1CCC[C@H]1C(=O)N[C@@H](C)C(=O)N[C@@H](CC(N)=O)C(=O)O` [DSW (pY) SQNQLFDSFAPEG (pY) PAN] (HELM PEPTIDE1{D.S.W.[O=C([C@H](Cc1ccc(OP(=O)(O)O)cc1)N[*:1])[*:2]].S.Q.N.Q.L.F.D.S.F.A.P.E.G.[O=C([C@H](Cc1ccc(OP(=O)(O)O)cc1)N[*:1])[*:2]].P.A.N}$$$$V2.0), for the setting “Affinity (IC50)”, the IC50 is over 30000 nM.

As for `CC(C)C[C@H](NC(=O)[C@@H]1CCCN1C(=O)[C@H](CC(C)C)NC(=O)[C@@H](NC(=O)[C@@H]1CCCN1C(=O)[C@H](CC(=O)O)NC(=O)[C@H](CCC(=O)O)NC(=O)[C@H](CO)NC(=O)[C@H](Cc1ccc(OP(=O)(O)O)cc1)NC(=O)[C@H](CCCNC(=N)N)NC(=O)[C@H](CCC(N)=O)NC(=O)[C@H](CC(C)C)NC(=O)[C@@H]1CCCN1C(=O)[C@H](CO)NC(=O)[C@H](CC(C)C)NC(=O)[C@H](CC(=O)O)NC(=O)[C@H](Cc1c[nH]cn1)NC(=O)[C@@H]1CCCN1C(=O)[C@@H](N)CO)[C@@H](C)O)C(=O)O` [SPHDLSPLQR (pY) SEDPTLPL] (HELM PEPTIDE1{S.P.H.D.L.S.P.L.Q.R.[O=C([C@H](Cc1ccc(OP(=O)(O)O)cc1)N[*:1])[*:2]].S.E.D.P.T.L.P.L}$$$$V2.0), the IC50 (Apparent Inhibition (IC50)) was over 100000 nM.

In turn, `CC(C)C[C@H](NC(=O)[C@H](CC(N)=O)NC(=O)[C@H](CC(=O)O)NC(=O)[C@H](Cc1ccccc1)NC(=O)[C@H](C)N)C(=O)N[C@@H](Cc1ccc(OP(=O)(O)O)cc1)C(=O)N[C@@H](Cc1ccc(OP(=O)(O)O)cc1)C(=O)N[C@@H](Cc1c[nH]c2ccccc12)C(=O)N[C@@H](CC(=O)O)C(=O)N[C@@H](CCC(N)=O)C(=O)N[C@@H](CC(N)=O)C(=O)N[C@@H](CO)C(=O)O` [AFDNL (pY) (pY) WDQNS, AFDNL(pY)(pY)WDQNS] (HELM PEPTIDE1{A.F.D.N.L.[O=C([C@H](Cc1ccc(OP(=O)(O)O)cc1)N[*:1])[*:2]].[O=C([C@H](Cc1ccc(OP(=O)(O)O)cc1)N[*:1])[*:2]].W.D.Q.N.S}$$$$V2.0) registered an IC50 (Affinity (IC50)) of 30 nM.

For the compound `CC(C)C[C@H](NC(=O)CNC(=O)[C@H](CC(C)C)NC(=O)[C@H](Cc1ccc(OP(=O)(O)O)cc1)NC(=O)[C@H](CCC(=O)O)NC(=O)[C@@H]1CCCN1C(=O)[C@H](CC(N)=O)NC(=O)[C@H](CCC(=O)O)NC(=O)[C@H](C)NC(=O)[C@@H](NC(=O)[C@@H]1CCCN1C(=O)[C@@H](NC(=O)CNC(=O)[C@@H](N)CCC(=O)O)[C@@H](C)O)[C@@H](C)O)C(=O)N[C@@H](CC(=O)O)C(=O)N[C@H](C(=O)N1CCC[C@H]1C(=O)N[C@H](C(=O)O)C(C)C)C(C)C` [EGTPTAENPE (pY) LGLDVPV, EGTPTAENPE(pY)LGLDVPV] (HELM PEPTIDE1{E.G.T.P.T.A.E.N.P.E.[O=C([C@H](Cc1ccc(OP(=O)(O)O)cc1)N[*:1])[*:2]].L.G.L.D.V.P.V}$$$$V2.0), the IC50 is 1000 nM (Apparent Inhibition (IC50)) and about 1000 nM under setting [2].

As to `CC(C)C[C@H](NC(=O)[C@H](Cc1ccc(OP(=O)(O)O)cc1)NC(=O)[C@H](CCC(=O)O)NC(=O)[C@@H]1CCCN1C(=O)[C@H](CC(N)=O)NC(=O)[C@H](CCC(=O)O)NC(=O)[C@@H](NC(=O)[C@H](C)NC(=O)CNC(=O)CNC(=O)[C@H](Cc1ccccc1)NC(=O)[C@H](C)N)C(C)C)C(=O)N[C@@H](C)C(=O)N1CCC[C@H]1C(=O)N[C@@H](CCCNC(=N)N)C(=O)N[C@@H](C)C(=O)NCC(=O)N[C@H](C(=O)N[C@@H](C)C(=O)N[C@@H](CO)C(=O)N[C@@H](CCC(N)=O)C(=O)O)[C@@H](C)O` [AFGGAVENPE (pY) LAPRAGTASQ, AFGGAVENPE(pY)LAPRAGTASQ] (HELM PEPTIDE1{A.F.G.G.A.V.E.N.P.E.[O=C([C@H](Cc1ccc(OP(=O)(O)O)cc1)N[*:1])[*:2]].L.A.P.R.A.G.T.A.S.Q}$$$$V2.0), the IC50 (Apparent Inhibition (IC50)) worked out at 1000 nM and the IC50 under setting [2] is about 1000 nM.

Regarding `CC(C)C[C@H](NC(=O)[C@H](CC(N)=O)NC(=O)[C@H](CC(=O)O)NC(=O)[C@H](Cc1ccccc1)NC(=O)[C@H](C)NC(=O)[C@@H]1CCCN1C(=O)[C@H](CO)NC(=O)[C@H](Cc1ccccc1)NC(=O)[C@H](C)NC(=O)[C@@H]1CCCN1)C(=O)N[C@@H](COP(=O)(O)O)C(=O)N[C@@H](COP(=O)(O)O)C(=O)N[C@@H](Cc1c[nH]c2ccccc12)C(=O)N[C@@H](CC(=O)O)C(=O)N[C@@H](CCC(N)=O)C(=O)N[C@@H](CC(N)=O)C(=O)N[C@@H](CO)C(=O)N[C@@H](CO)C(=O)N[C@@H](CCC(=O)O)C(=O)N[C@@H](CCC(N)=O)C(=O)NCC(=O)O` [PAFSPAFDNL (pS) (pS) WDQNSSEQG] (HELM PEPTIDE1{P.A.F.S.P.A.F.D.N.L.[O=C([C@H](COP(=O)(O)O)N[*:1])[*:2]].[O=C([C@H](COP(=O)(O)O)N[*:1])[*:2]].W.D.Q.N.S.S.E.Q.G}$$$$V2.0), under setting [1], the IC50 is over 30000 nM.

Consider `CC(C)C[C@H](NC(=O)[C@H](CCC(N)=O)NC(=O)[C@H](CC(N)=O)NC(=O)[C@H](CCC(N)=O)NC(=O)[C@H](CC(=O)O)NC(=O)[C@H](Cc1c[nH]c2ccccc12)NC(=O)[C@H](CO)NC(=O)[C@@H](N)CC(=O)O)C(=O)N[C@@H](Cc1ccccc1)C(=O)N[C@@H](CO)C(=O)N[C@@H](Cc1ccc(OP(=O)(O)O)cc1)C(=O)N[C@@H](Cc1ccc(OP(=O)(O)O)cc1)C(=O)N[C@@H](CO)C(=O)N[C@@H](Cc1ccccc1)C(=O)N[C@@H](C)C(=O)N1CCC[C@H]1C(=O)N[C@@H](CCC(=O)O)C(=O)NCC(=O)N1CCC[C@H]1C(=O)N[C@@H](C)C(=O)N[C@@H](CC(N)=O)C(=O)O` [DSWDQNQLFS (pY) (pY) SFAPEGPAN] (HELM PEPTIDE1{D.S.W.D.Q.N.Q.L.F.S.[O=C([C@H](Cc1ccc(OP(=O)(O)O)cc1)N[*:1])[*:2]].[O=C([C@H](Cc1ccc(OP(=O)(O)O)cc1)N[*:1])[*:2]].S.F.A.P.E.G.P.A.N}$$$$V2.0), for which, for the setting “Affinity (IC50)”, the IC50 is over 30000 nM.

Regarding `CC(C)C[C@H](NC(=O)[C@H](CC(N)=O)NC(=O)[C@H](CC(=O)O)NC(=O)[C@H](Cc1ccccc1)NC(=O)[C@H](C)N)C(=O)N[C@@H](Cc1ccc(OP(=O)(O)O)cc1)C(=O)N[C@@H](Cc1ccc(O)cc1)C(=O)N[C@@H](Cc1c[nH]c2ccccc12)C(=O)N[C@@H](CC(=O)O)C(=O)N[C@@H](CCC(N)=O)C(=O)N[C@@H](CC(N)=O)C(=O)N[C@@H](CO)C(=O)O` [AFDNL (pY) YWDQNS, AFDNL(pY)YWDQNS] (HELM PEPTIDE1{A.F.D.N.L.[O=C([C@H](Cc1ccc(OP(=O)(O)O)cc1)N[*:1])[*:2]].Y.W.D.Q.N.S}$$$$V2.0; N-terminus and C-terminus assumed), the “fold less effective in competition” value was found to be 30 fold and the “inhibition of / competition for PTB domain/c-erbB2 binding, in words” value is reported as “strong inhibition”. Moreover, the IC50 (Affinity (IC50)) was 1000 nM. In addition, the “block of PTB/c-erbB2 interaction at one peptide concentration, in words” value (FIG. 2C, 300 nM peptides (legend says 500 nM)) is “some inhibition”.

These data come from patent US20020156236A1, “Binding sites for phosphotyrosine binding domains” (priority 1995, published 2002).
